Reference: ChEMBL document CHEMBL1833895, “Synthesis and biological activity of desmethoxy analogues of coruscanone A” (Bioorg Med Chem Lett, 2011)

Columns and labels:
Candida albicans [1] = experiment: Antifungal activity against Candida albicans ATCC 44859 after 48 hrs by microdilution method; type: functional; details: ATCC 44859, 48 h
Candida albicans [2] = experiment: Antifungal activity against Candida albicans ATCC 90028 after 24 hrs by microdilution method; type: functional; details: ATCC 90028, 24 h
Candida albicans [3] = experiment: Antifungal activity against Candida albicans ATCC 90028 after 48 hrs by microdilution method; type: functional; details: ATCC 90028, 48 h
Candida parapsilosis [4] = experiment: Antifungal activity against Candida parapsilosis ATCC 22019 after 24 hrs by microdilution method; type: functional; details: Lodderomyces parapsilosis, ATCC 22019, 24 h
Candida parapsilosis [5] = experiment: Antifungal activity against Candida parapsilosis ATCC 22019 after 48 hrs by microdilution method; type: functional; details: Lodderomyces parapsilosis, ATCC 22019, 48 h
Pichia kudriavzevii [6] = experiment: Antifungal activity against Candida krusei ATCC 6258 after 24 hrs by microdilution method; type: functional; details: ATCC 6258, 24 h
Pichia kudriavzevii [7] = experiment: Antifungal activity against Candida krusei ATCC 6258 after 48 hrs by microdilution method; type: functional; details: ATCC 6258, 48 h
Pichia kudriavzevii [8] = experiment: Antifungal activity against Candida krusei E28 after 24 hrs by microdilution method; type: functional; details: E28, 24 h
Pichia kudriavzevii [9] = experiment: Antifungal activity against Candida krusei E28 after 48 hrs by microdilution method; type: functional; details: E28, 48 h
Candida tropicalis [10] = experiment: Antifungal activity against Candida tropicalis 156 after 24 hrs by microdilution method; type: functional; details: Candida tropicalis, 156, 24 h
Candida tropicalis [11] = experiment: Antifungal activity against Candida tropicalis 156 after 48 hrs by microdilution method; type: functional; details: Candida tropicalis, 156, 48 h
Nakaseomyces glabratus [12] = experiment: Antifungal activity against Candida glabrata 20/I after 24 hrs by microdilution method; type: functional
Nakaseomyces glabratus [13] = experiment: Antifungal activity against Candida glabrata 20/I after 48 hrs by microdilution method; type: functional
Clavispora lusitaniae [14] = experiment: Antifungal activity against Candida lusitaniae 2446/I after 24 hrs by microdilution method; type: functional
Clavispora lusitaniae [15] = experiment: Antifungal activity against Candida lusitaniae 2446/I after 48 hrs by microdilution method; type: functional
Trichosporon asahii [16] = experiment: Antifungal activity against Trichosporon asahii 1188 after 24 hrs by microdilution method; type: functional; details: Trichosporon asahii, 1188, 24 h
Trichosporon asahii [17] = experiment: Antifungal activity against Trichosporon asahii 1188 after 48 hrs by microdilution method; type: functional; details: Trichosporon asahii, 1188, 48 h
Aspergillus fumigatus [18] = experiment: Antifungal activity against Aspergillus fumigatus 231 after 24 hrs by microdilution method; type: functional, organism-based; details: Aspergillus fumigatus, 231, 24 h
Aspergillus fumigatus [19] = experiment: Antifungal activity against Aspergillus fumigatus 231 after 48 hrs by microdilution method; type: functional, organism-based; details: Aspergillus fumigatus, 231, 48 h
Lichtheimia corymbifera [20] = experiment: Antifungal activity against Absidia corymbifera 272 after 24 hrs by microdilution method; type: functional, organism-based; details: Lichtheimia corymbifera, 272, 24 h
Lichtheimia corymbifera [21] = experiment: Antifungal activity against Absidia corymbifera 272 after 48 hrs by microdilution method; type: functional, organism-based; details: Lichtheimia corymbifera, 272, 48 h
Candida albicans [22] = experiment: Antifungal activity against Candida albicans ATCC 44859 after 24 hrs by microdilution method; type: functional; details: ATCC 44859, 24 h
[23] = tested on: Trichophyton mentagrophytes; experiment: Antifungal activity against Trichophyton mentagrophytes 445 after 72 hrs by microdilution method; type: functional, organism-based; details: Trichophyton mentagrophytes, 445, 72 h
[24] = tested on: Trichophyton mentagrophytes; experiment: Antifungal activity against Trichophyton mentagrophytes 445 after 120 hrs by microdilution method; type: functional, organism-based; details: Trichophyton mentagrophytes, 445, 120 h
L1210 = experiment: Cytostatic activity against mouse L1210 cells at 10 umol/L after 72 hrs by XTT assay; type: ADME, cell-based; details: l1210, 72 h, 10 µM
HL-60 = experiment: Cytostatic activity against human HL60 cells at 10 umol/L after 72 hrs by XTT assay; type: ADME, cell-based; details: hl-60, 72 h, 10 µM
[25] = Cytostatic activity against human HeLaS3 cells at 10 umol/L after 48 hrs by XTT assay; type: ADME, cell-based; details: hela s3, 48 h, 10 µM
CCRF-CEM = experiment: Cytostatic activity against human CCRF-CEM cells after 72 hrs by XTT assay; type: ADME, cell-based
HT-29 = experiment: Cytostatic activity against human HT-29 cells at 10 umol/L after 72 hrs by XTT assay; type: ADME, cell-based; details: ht-29, 72 h, 10 µM
[26] = Cytostatic activity against human COLO201 cells at 10 umol/L after 72 hrs by XTT assay; type: ADME, cell-based; details: colo 201, 72 h, 10 µM

| SMILES | IC80 (Candida albicans [1]) [µM] | IC80 (Candida albicans [2]) [µM] | IC80 (Candida albicans [3]) [µM] | IC80 (Candida parapsilosis [4]) [µM] | IC80 (Candida parapsilosis [5]) [µM] | IC80 (Pichia kudriavzevii [6]) [µM] | IC80 (Pichia kudriavzevii [7]) [µM] | IC80 (Pichia kudriavzevii [8]) [µM] | IC80 (Pichia kudriavzevii [9]) [µM] | IC80 (Candida tropicalis [10]) [µM] | IC80 (Candida tropicalis [11]) [µM] | IC80 (Nakaseomyces glabratus [12]) [µM] | IC80 (Nakaseomyces glabratus [13]) [µM] | IC80 (Clavispora lusitaniae [14]) [µM] | IC80 (Clavispora lusitaniae [15]) [µM] | IC80 (Trichosporon asahii [16]) [µM] | IC80 (Trichosporon asahii [17]) [µM] | IC80 (Aspergillus fumigatus [18]) [µM] | IC80 (Aspergillus fumigatus [19]) [µM] | IC80 (Lichtheimia corymbifera [20]) [µM] | further results |
| --- | --- | --- | --- | --- | --- | --- | --- | --- | --- | --- | --- | --- | --- | --- | --- | --- | --- | --- | --- | --- | --- |
| O=C1C=CC(=O)C1=Cc1ccccc1 | 1.95 | 3.9 | 7.81 | 3.9 | 3.9 | 3.9 | 3.9 | 3.9 | 7.81 | 3.9 | 3.9 | 7.81 | 7.81 | 7.81 | 15.6 | 1.95 | 3.9 | 15.6 | 31.2 | 250 | IC80 (Lichtheimia corymbifera [21]): 250 µM; IC80 (Candida albicans [22]): 1.95 µM; IC80 [23]: 1.95 µM; IC50 [24]: 3.9 µM; Activity (L1210): Non-toxic; Activity (HL-60): Non-toxic; Activity [25]: Non-toxic; IC50 (CCRF-CEM): 2.6 µM; Activity (HT-29): Non-toxic; Activity [26]: Non-toxic |
| COc1ccc(C=C2C(=O)C=CC2=O)cc1 | 7.81 | 7.81 | 7.81 | 7.81 | 15.6 | 3.9 | 3.9 | 3.9 | 7.81 | 7.81 | 7.81 | 7.81 | 7.81 | 7.81 | 31.2 | 7.81 | 31.2 | 15.6 | 31.2 | > 250 | IC80 (Lichtheimia corymbifera [21]): > 250 µM; IC80 (Candida albicans [22]): 3.9 µM; IC80 [23]: 3.9 µM; IC50 [24]: 7.81 µM; Activity (L1210): Non-toxic; Activity (HL-60): Non-toxic; Activity [25]: Non-toxic; IC50 (CCRF-CEM): 3.8 µM; Activity (HT-29): Non-toxic; Activity [26]: Non-toxic |
| Cc1ccc(C=C2C(=O)C=CC2=O)cc1 | 7.81 | 3.9 | 15.6 | 15.6 | 15.6 | 7.81 | 15.6 | 15.6 | 15.6 | 7.81 | 15.6 | 15.6 | 15.6 | 15.6 | 15.6 | 15.6 | 62.5 | 31.2 | 125 | > 250 | IC80 (Lichtheimia corymbifera [21]): > 250 µM; IC80 (Candida albicans [22]): 3.9 µM; IC80 [23]: 125 µM; IC50 [24]: > 250 µM; Activity (L1210): Non-toxic; Activity (HL-60): Non-toxic; Activity [25]: Non-toxic; IC50 (CCRF-CEM): 2.7 µM; Activity (HT-29): Non-toxic; Activity [26]: Non-toxic |
| OC(Cn1cncn1)(Cn1cncn1)c1ccc(F)cc1F [FLUCONAZOLE] | 2 | 0.8 | 3.3 | 6.5 | 13 | > 50 | > 50 | > 50 | > 50 | 3 | 5 | 22 | > 50 | 3.3 | 3.3 | 4 | 9 | > 50 | > 50 | > 50 | IC80 (Lichtheimia corymbifera [21]): > 50 µM; IC80 (Candida albicans [22]): 1 µM; IC80 [23]: 17 µM; IC50 [24]: 26 µM |
| O=C1C=CC(=O)C1=Cc1cccs1 | 7.81 | 15.6 | 15.6 | 15.6 | 15.6 | 7.81 | 15.6 | 7.81 | 7.81 | 15.6 | 15.6 | 7.81 | 15.6 | 15.6 | 15.6 | 15.6 | 31.2 | 15.6 | 15.6 | 500 | IC80 (Lichtheimia corymbifera [21]): > 500 µM; IC80 (Candida albicans [22]): 7.81 µM; IC80 [23]: 15.6 µM; IC50 [24]: 15.6 µM; Activity (L1210): Non-toxic; Activity (HL-60): Non-toxic; Activity [25]: Non-toxic; IC50 (CCRF-CEM): 4.2 µM; Activity (HT-29): Non-toxic; Activity [26]: Non-toxic |
| O=C1C=CC(=O)C1=Cc1cccc(Br)c1 | 31.2 | 15.6 | 31.2 | 31.2 | 62.5 | 15.6 | 31.2 | 31.2 | 31.2 | 31.2 | 62.5 | 31.2 | 62.5 | 31.2 | 31.2 | 32.5 | 125 | 125 | 125 | > 125 | IC80 (Lichtheimia corymbifera [21]): > 125 µM; IC80 (Candida albicans [22]): 15.6 µM; IC80 [23]: 15.6 µM; IC50 [24]: 15.6 µM; Activity (L1210): Non-toxic; Activity (HL-60): Non-toxic; Activity [25]: Non-toxic; IC50 (CCRF-CEM): 7.5 µM; Activity (HT-29): Non-toxic; Activity [26]: Non-toxic |
